Reference: patent publication US20210077625A1, “RAY TRACING TECHNIQUE FOR WIRELESS CHANNEL MEASUREMENTS” (Cohere Technologies, Inc., priority 2017, published 2021)

Experiments:
[1] = at 25° C.; cited from earlier work
melanoma = conditions: reported in literature; cited from earlier work
LM36R xenograft tumor = assay: Gene array / microarray RNA analysis of LM36R xenograft tumors; type: in vivo
Experimental: Gene array was performed on all tumors. […] By varying the delivery process of a single drug, one might be able to prevent resistance.
RNA Extraction and QC: RNA was extracted using the Qiagen miRNEasy™ kit with on column DNAse treatment. Tissue was lysed and homogenized in Qiazol™ with a rotor-stator probe homogenizer for 40 seconds or until fully disrupted (1 ml Qiazol™ per 100 mg of tissue). RNA was eluted in 50 ul nuclease free water. One microliter was used to determine OD (optical density) values on a Nanodrop 1000. One microliter was used to assess sample profiles on the Agilent 2100 using the RNA 6000 Nano assay. Total RNA (250 ng) was amplified and labeled using the ThermoFisher Scientific Illuina™ TotalPrep™ RNA Amplification kit. Labeled cRNA was hybridized to Illumina HT12™ bead array. Image acquisition and data extraction were performed.

[2] = target: T1, N-myristoyltransferase 1 (NMT1) (Homo sapiens, UniProt P30419); conditions: reported in literature; cited from earlier work
T1 sequence (P30419 1-496): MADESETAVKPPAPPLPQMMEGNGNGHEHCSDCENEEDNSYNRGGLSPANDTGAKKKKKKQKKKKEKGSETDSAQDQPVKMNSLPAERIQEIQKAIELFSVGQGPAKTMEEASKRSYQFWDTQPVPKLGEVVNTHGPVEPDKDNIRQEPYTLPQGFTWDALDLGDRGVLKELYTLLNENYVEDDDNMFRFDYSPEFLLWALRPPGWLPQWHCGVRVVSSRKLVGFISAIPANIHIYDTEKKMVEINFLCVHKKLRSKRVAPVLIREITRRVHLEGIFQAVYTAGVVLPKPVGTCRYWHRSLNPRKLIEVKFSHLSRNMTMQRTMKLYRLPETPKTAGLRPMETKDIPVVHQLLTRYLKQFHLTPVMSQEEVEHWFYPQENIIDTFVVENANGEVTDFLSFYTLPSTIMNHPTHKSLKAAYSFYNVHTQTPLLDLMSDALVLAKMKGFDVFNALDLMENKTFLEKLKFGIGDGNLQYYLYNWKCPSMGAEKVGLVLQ

[3] = tested on: LM36R human melanoma xenograft; assay: Tumor growth of vemurafenib-resistant LM36R melanoma xenograft in nude mice; type: in vivo, mouse; conditions: nude male mice, 5 mg of drug/kg per injection, bi-weekly tail vein, 4 weeks, n=5 per group; p-value 0.048 at week 4
Experimental: Vemurafenib-resistant LM36R human melanoma cells were inoculated (5.0×10^5 cells/mouse) into the right flank of athymic Nu/Nu nude male mice (Cr1:NU-Foxn1^nu strain code 088)) n=5 per group, and progression of tumor was recorded using the volume model of length×(width^2)×0.52. Mice were split into four groups consisting of a control (empty HANP), free Tris DBA-Pd, HANP with Tris DBA-Pd, and HANP with Tris DBA-Pd and αIGF1R antibody. Free Tris DBA-Pd was first dissolved in DMSO and then mixed with Kolliphor EL™. At last, the mixture was diluted by H2O before injection at concentration of 1 mg/mL of DBA. The ratio of DMSO, Kolliphor EL™ and H2O was controlled as 1:2:7 (v/v). The treatments were administered through bi-weekly tail vein injections over the course of 4 weeks (5 mg of drug/kg per injection). Tumor samples were analyzed for CD44 (hyaluronate receptor) expression by immunohistochemistry.

[4] = Dispersion, solubility and stability in water, FBS, cell culture media; type: physicochemical; conditions: for solubility (general statement): water / not specified

Row | Compound | percent solubility in water by weight [1] | efficacy against melanoma in vitro and preclinical models of pancreatic cancer, chronic lymphocytic leukemia, multiple myeloma (melanoma) | SCG2 (secretogranin 2) gene expression (LM36R xenograft tumor) | activity against the enzyme N-myristoyltransferase 1 [2] | inhibition of LM36R tumor growth (tumor volume) [3] | solubility (general statement) [4] | solubility (general statement) ([4]; listed as Tris (dibenzylideneacetone) dipalladium) | behaviour in water, FBS, and cell culture media ([4]; water, FBS, cell culture media)
1 | CCCCCCCC [octane] | 0.63×10^−4 % w/w |  |  |  |  |  |  | 
2 | Tris (dibenzylideneacetone) dipalladium [Tris DBA-Pd] |  | efficacious | downregulated | activity | showed efficacy | Water-insoluble | poor solubility | immediately precipitated
